Results published in US20060069132A1, “Azolecarboxamide herbicides” (priority 2004, published 2006).

What was measured:
giant foxtail [1] = assay: Test C pre-/postemergence herbicide test; type: in vivo, Setaria faberi
In short: (§1)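 Greenhouse-grown plants were evaluated visually 12 to 14 days after treatment, with 100 meaning complete control and 0 no effect. Application was preemergence, or postemergence at 2 to 18 cm.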

giant foxtail [2] = assay: Test A pre-/postemergence herbicide test; type: in vivo, Setaria faberi
In short: (§2)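 Plants are held in greenhouse about ten days after treatment, then compared with untreated controls and scored 0 (no effect) to 100 (complete control). Preemergence dosing is a directed soil spray on sown sandy loam; postemergence dosing is spray to runoff at 2–10 cm height.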

large crabgrass = assay: Test C pre-/postemergence herbicide test; type: in vivo, Digitaria sanguinalis
In short: as §1

redroot pigweed = assay: Test A pre-/postemergence herbicide test; type: in vivo, Amaranthus retroflexus
In short: as §2

goosegrass = assay: Test C pre-/postemergence herbicide test; type: in vivo, Eleusine indica
In short: as §1

woolly cupgrass = assay: Test C pre-/postemergence herbicide test; type: in vivo, Eriochloa villosa
In short: as §1

bermudagrass = assay: Test C pre-/postemergence herbicide test; type: in vivo, Cynodon dactylon; conditions: for Bermudagrass plant response rating: 500 g ai/ha
In short: as §1

pigweed = assay: Test C pre-/postemergence herbicide test; type: in vivo, Amaranthus retroflexus
In short: as §1

[3] = 62 g ai/ha, preemergence, scale 0 to 100
[4] = 125 g ai/ha, scale 0 (no effect) to 100 (complete control), visual, 12 to 14 days, preemergence
[5] = 250 g ai/ha, scale 0-100, preemergence
[6] = Preemergence, 500 g ai/ha, scale 0 to 100, 0 no effect, 100 complete control
[7] = Postemergence, 500 g ai/ha, 0 to 100 scale, 0 no effect, 100 complete control
[8] = Postemergence, 2000 g ai/ha, 0 to 100 scale, 0 no effect, 100 complete control
[9] = Preemergence, 2000 g ai/ha, visual rating, 0 to 100 scale (0 no effect, 100 complete control)
[10] = preemergence, 500 g ai/ha, visual injury, 0 to 100 scale (0 no effect, 100 complete control)
[11] = 62 g ai/ha, preemergence, scale 0 to 100, 0 no effect, 100 complete control
[12] = Preemergence, scale 0 to 100, 0 no effect, 100 complete control
[13] = Postemergence, 500 g ai/ha, scale 0 to 100
[14] = Postemergence, 250 g ai/ha, scale 0 to 100, 0 no effect, 100 complete control
[15] = postemergence, 125 g ai/ha, scale 0 to 100
[16] = postemergence, 62 g ai/ha, scale 0 to 100
[17] = Preemergence, 500 g ai/ha, visual rating, 0 to 100 scale (0 no effect, 100 complete control)
[18] = Preemergence, 2000 g ai/ha, 0 to 100 scale, 0 no effect, 100 complete control
[19] = 31 g ai/ha, preemergence, scale 0 to 100
[20] = 125 g ai/ha, scale 0-100, preemergence
[21] = Postemergence, 125 g ai/ha, scale 0 to 100, 0 no effect, 100 complete control
[22] = postemergence, 31 g ai/ha, scale 0 to 100
[23] = 500 g ai/ha, scale 0 to 100 (0 no effect, 100 complete control), visual, 12 to 14 days, preemergence

`CC(=NO)c1cccc(NC(=O)c2sc(C(C)(C)C)nc2C)c1` [Compound 195] was tested, and the “Plant response rating, Foxtail, Giant” value (giant foxtail [1]; [3]) was 0, the “Plant response rating, Foxtail, Giant” value (giant foxtail [1]; [4]) was 0 and the “Plant response rating, Foxtail, Giant” value (giant foxtail [1]; [5]) was 0. The “Foxtail, Giant plant response rating” value (giant foxtail [1]; [6]) was 20, the “Foxtail, Giant plant response rating” value (giant foxtail [2]; [7]) was 5 and the “Plant response rating, Foxtail, Giant” value (giant foxtail [2]; [8]) was 0. The “Foxtail, Giant plant response rating” value (giant foxtail [2]; [9]) was 45, the “Foxtail, Giant plant response rating” value (giant foxtail [2]; [10]) was 30 and the “Plant response rating, Crabgrass, Large” value (large crabgrass; [3]) was 0. The “Plant response rating, Crabgrass, Large” value (large crabgrass; [4]) was 0, the “Plant response rating, Crabgrass, Large” value (large crabgrass; [5]) was 5 and the “Crabgrass, Large plant response rating” value (large crabgrass; [6]) was 70. For the same compound, the “Pigweed plant response rating” value (redroot pigweed; [7]) was 5, the “Plant response rating, Pigweed” value (redroot pigweed; [8]) was 25 and the “Pigweed plant response rating” value (redroot pigweed; [9]) was 0. For the same compound, the “Pigweed plant response rating” value (redroot pigweed; [10]) was 0, the “Plant response rating, Goosegrass” value (goosegrass; [3]) was 100 and the “Plant response rating, Goosegrass” value (goosegrass; [4]) was 100. The “Plant response rating, Goosegrass” value (goosegrass; [5]) was 100, the “Goosegrass plant response rating” value (goosegrass; [6]) was 100 and the “Plant response rating, Cupgrass, Woolly” value (woolly cupgrass; [3]) was 0. For the same compound, the “Plant response rating, Cupgrass, Woolly” value (woolly cupgrass; [4]) was 0, the “Plant response rating, Cupgrass, Woolly” value (woolly cupgrass; [5]) was 10 and the “Cupgrass, Woolly plant response rating” value (woolly cupgrass; [6]) was 10. For the same compound, the “Plant response rating, Bermudagrass” value (bermudagrass; [11]) was 0, the “Plant response rating, Bermudagrass” value (bermudagrass; [4]) was 0 and the “Plant response rating, Bermudagrass” value (bermudagrass; [5]) was 30. The “Bermudagrass plant response rating” value (bermudagrass; [12]) was 65, the “Plant response rating, Pigweed” value (pigweed; [3]) was 55 and the “Plant response rating, Pigweed” value (pigweed; [4]) was 60. The “Plant response rating, Pigweed” value (pigweed; [5]) was 90 and the “Pigweed plant response rating” value (pigweed; [6]) was 90.

In the case of `CCCCOC(=O)c1cccc(NC(=O)c2cc(C(C)(C)C)nn2CC)c1` [Compound 86], the “Foxtail, Giant plant response rating” value (giant foxtail [1]; [13]) is reported as 70, the “Plant response rating, Foxtail, Giant” value (giant foxtail [1]; [14]) is reported as 50 and the “Plant response rating, Foxtail, Giant” value (giant foxtail [1]; [15]) is reported as 20. For the same compound, the “Plant response rating, Foxtail, Giant” value (giant foxtail [1]; [16]) was 10, the “Foxtail, Giant plant response rating” value (giant foxtail [2]; [7]) was 20 and the “Plant response rating, Foxtail, Giant” value (giant foxtail [2]; [8]) was 20. For the same compound, the “Foxtail, Giant plant response rating” value (giant foxtail [2]; [17]) was 0, the “Foxtail, Giant plant response rating” value (giant foxtail [2]; [18]) was 0 and the “Crabgrass, Large plant response rating” value (large crabgrass; [13]) was 40. The “Plant response rating, Crabgrass, Large” value (large crabgrass; [14]) was 10, the “Plant response rating, Crabgrass, Large” value (large crabgrass; [16]) was 10 and the “Pigweed plant response rating” value (redroot pigweed; [7]) was 55. The “Plant response rating, Pigweed” value (redroot pigweed; [8]) was 95, the “Pigweed plant response rating” value (redroot pigweed; [17]) was 0 and the “Pigweed plant response rating” value (redroot pigweed; [18]) was 55. The “Goosegrass plant response rating” value (goosegrass; [13]) was 85, the “Plant response rating, Goosegrass” value (goosegrass; [14]) was 80 and the “Plant response rating, Goosegrass” value (goosegrass; [15]) was 60. The “Plant response rating, Goosegrass” value (goosegrass; [16]) was 50, the “Cupgrass, Woolly plant response rating” value (woolly cupgrass; [13]) was 85 and the “Plant response rating, Cupgrass, Woolly” value (woolly cupgrass; [14]) was 80. For the same compound, the “Plant response rating, Cupgrass, Woolly” value (woolly cupgrass; [15]) was 70, the “Plant response rating, Cupgrass, Woolly” value (woolly cupgrass; [16]) was 50 and the “Bermudagrass plant response rating” value (bermudagrass; Postemergence, scale 0 to 100) was 100. For the same compound, the “Plant response rating, Bermudagrass” value (bermudagrass; [14]) was 30, the “Plant response rating, Bermudagrass” value (bermudagrass; [16]) was 10 and the “Pigweed plant response rating” value (pigweed; [13]) was 100. The “Plant response rating, Pigweed” value (pigweed; [14]) was 100, the “Plant response rating, Pigweed” value (pigweed; [15]) was 100 and the “Plant response rating, Pigweed” value (pigweed; [16]) was 100.

For `C=Cn1nc(C(C)(C)C)cc1C(=O)Nc1cccc(C(=O)NCC)c1` [Compound 33], the “Plant response rating, Foxtail, Giant” value (giant foxtail [1]; [19]) was 10, the “Plant response rating (0 = no effect, 100 = complete control), Foxtail, Giant” value (giant foxtail [1]; 62 g ai/ha, preemergence) was 20 and the “Plant response rating, Foxtail, Giant” value (giant foxtail [1]; [20]) was 60. For the same compound, the “Plant response rating, Foxtail, Giant” value (giant foxtail [1]; [21]) was 30, the “Plant response rating, Foxtail, Giant” value (giant foxtail [1]; [22]) was 30 and the “Plant response rating, Foxtail, Giant” value (giant foxtail [1]; [16]) was 30. For the same compound, the “Plant response rating, Foxtail, Giant” value (giant foxtail [2]; [7]) was 70, the “Plant response rating, Foxtail, Giant” value (giant foxtail [2]; [8]) was 85 and the “Foxtail, Giant plant response rating” value (giant foxtail [2]; [17]) was 80. For the same compound, the “Foxtail, Giant plant response rating” value (giant foxtail [2]; [18]) was 95, the “Plant response rating, Crabgrass, Large” value (large crabgrass; [19]) was 90 and the “Plant response rating (0 = no effect, 100 = complete control), Crabgrass, Large” value (large crabgrass; 62 g ai/ha, preemergence) was 100. For the same compound, the “Plant response rating, Crabgrass, Large” value (large crabgrass; [20]) was 100, the “Plant response rating, Crabgrass, Large” value (large crabgrass; [21]) was 50 and the “Plant response rating, Crabgrass, Large” value (large crabgrass; [22]) was 40. For the same compound, the “Plant response rating, Pigweed” value (redroot pigweed; [7]) was 85, the “Plant response rating, Pigweed” value (redroot pigweed; [8]) was 85 and the “Pigweed plant response rating” value (redroot pigweed; [17]) was 100. The “Pigweed plant response rating” value (redroot pigweed; [18]) was 100, the “Plant response rating, Goosegrass” value (goosegrass; [19]) was 20 and the “Plant response rating (0 = no effect, 100 = complete control), Goosegrass” value (goosegrass; 62 g ai/ha, preemergence) was 60. The “Plant response rating, Goosegrass” value (goosegrass; [20]) was 90, the “Plant response rating, Goosegrass” value (goosegrass; [21]) was 40 and the “Plant response rating, Goosegrass” value (goosegrass; [22]) was 40. The “Plant response rating, Goosegrass” value (goosegrass; [16]) was 40, the “Plant response rating, Cupgrass, Woolly” value (woolly cupgrass; [19]) was 20 and the “Plant response rating (0 = no effect, 100 = complete control), Cupgrass, Woolly” value (woolly cupgrass; 62 g ai/ha, preemergence) was 20. The “Plant response rating, Cupgrass, Woolly” value (woolly cupgrass; [20]) was 50, the “Plant response rating, Cupgrass, Woolly” value (woolly cupgrass; [21]) was 60 and the “Plant response rating, Cupgrass, Woolly” value (woolly cupgrass; [22]) was 50. The “Plant response rating, Cupgrass, Woolly” value (woolly cupgrass; [16]) was 60, the “Plant response rating, Bermudagrass” value (bermudagrass; 16 g ai/ha, scale 0 to 100, 0 no effect, 100 complete control, last section of Table C (species set of preemergence test)) was 30 and the “Plant response rating, Bermudagrass” value (bermudagrass; [19]) was 50. For the same compound, the “Plant response rating (0 = no effect, 100 = complete control), Bermudagrass” value (bermudagrass; 62 g ai/ha, preemergence) was 80, the “Plant response rating, Bermudagrass” value (bermudagrass; [20]) was 90 and the “Plant response rating, Bermudagrass” value (bermudagrass; [21]) was 30. For the same compound, the “Plant response rating, Bermudagrass” value (bermudagrass; postemergence, 16 g ai/ha, scale 0 to 100) was 0, the “Plant response rating, Bermudagrass” value (bermudagrass; [22]) was 20 and the “Plant response rating, Bermudagrass” value (bermudagrass; [16]) was 20. The “Plant response rating, Pigweed” value (pigweed; [19]) was 30, the “Plant response rating (0 = no effect, 100 = complete control), Pigweed” value (pigweed; 62 g ai/ha, preemergence) was 50 and the “Plant response rating, Pigweed” value (pigweed; [15]) was 100. The “Plant response rating, Pigweed” value (pigweed; [22]) was 90 and the “Plant response rating, Pigweed” value (pigweed; [16]) was 100.

For `CCNC(=O)c1cccc(NC(=O)c2sc(C(C)(C)C)nc2CC)n1` [Compound 213], the “Plant response rating, Foxtail, Giant” value (giant foxtail [1]; [3]) was 30, the “Plant response rating, Foxtail, Giant” value (giant foxtail [1]; [4]) was 50 and the “Plant response rating, Foxtail, Giant” value (giant foxtail [1]; [5]) was 95. For the same compound, the “Plant response rating, Foxtail, Giant” value (giant foxtail [1]; [23]) was 100, the “Foxtail, Giant plant response rating” value (giant foxtail [2]; [7]) was 20 and the “Plant response rating, Foxtail, Giant” value (giant foxtail [2]; [8]) was 25. For the same compound, the “Foxtail, Giant plant response rating” value (giant foxtail [2]; [9]) was 85, the “Foxtail, Giant plant response rating” value (giant foxtail [2]; [10]) was 60 and the “Plant response rating, Crabgrass, Large” value (large crabgrass; [3]) was 0. The “Plant response rating, Crabgrass, Large” value (large crabgrass; [4]) was 50, the “Plant response rating, Crabgrass, Large” value (large crabgrass; [5]) was 100 and the “Plant response rating, Crabgrass, Large” value (large crabgrass; [23]) was 100. For the same compound, the “Pigweed plant response rating” value (redroot pigweed; [7]) was 30, the “Plant response rating, Pigweed” value (redroot pigweed; [8]) was 40 and the “Pigweed plant response rating” value (redroot pigweed; [9]) was 95. The “Pigweed plant response rating” value (redroot pigweed; [10]) was 75, the “Plant response rating, Goosegrass” value (goosegrass; [3]) was 0 and the “Plant response rating, Goosegrass” value (goosegrass; [4]) was 60. For the same compound, the “Plant response rating, Goosegrass” value (goosegrass; [5]) was 80, the “Plant response rating, Goosegrass” value (goosegrass; [23]) was 90 and the “Plant response rating, Cupgrass, Woolly” value (woolly cupgrass; [3]) was 0. For the same compound, the “Plant response rating, Cupgrass, Woolly” value (woolly cupgrass; [4]) was 0, the “Plant response rating, Cupgrass, Woolly” value (woolly cupgrass; [5]) was 0 and the “Plant response rating, Cupgrass, Woolly” value (woolly cupgrass; [23]) was 30. For the same compound, the “Plant response rating, Bermudagrass” value (bermudagrass; [11]) was 50, the “Plant response rating, Bermudagrass” value (bermudagrass; [4]) was 60 and the “Plant response rating, Bermudagrass” value (bermudagrass; [5]) was 80. For the same compound, the “Bermudagrass plant response rating” value (bermudagrass; [12]) was 90, the “Plant response rating, Pigweed” value (pigweed; [3]) was 80 and the “Plant response rating, Pigweed” value (pigweed; [4]) was 100. The “Plant response rating, Pigweed” value (pigweed; [5]) was 100 and the “Plant response rating, Pigweed” value (pigweed; [23]) was 100.
